Tests used:
Experiment in all cases: KINOMEscan
Type in all cases: binding
ADCK4 = molecular target: T1, ADCK4 (Homo sapiens, UniProt Q96D53)
T1 construct: purchased Eurofins DiscoverX KINOMEscan
In short: (§1)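 Active-site competition format. Unbound kinase fraction measured by affinity-ligand capture plus qPCR after 1 h at RT. Kd from 12-point half-log titration, maximum 33 μM.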

AKT3 = molecular target: T2, AKT3 (Homo sapiens, UniProt Q9Y243)
T2 construct: purchased Eurofins DiscoverX KINOMEscan
In short: as §1

ALK = molecular target: T3, ALK (Homo sapiens, UniProt Q9UM73)
T3 construct: purchased Eurofins DiscoverX KINOMEscan
In short: as §1

BRSK1 = molecular target: T4, BRSK1 (Homo sapiens, UniProt Q8TDC3)
T4 construct: purchased Eurofins DiscoverX KINOMEscan
In short: as §1

CAMK1 = molecular target: T5, CAMK1 (Homo sapiens, UniProt Q14012)
T5 construct: purchased Eurofins DiscoverX KINOMEscan
T5 sequence (Q14012 whole entry): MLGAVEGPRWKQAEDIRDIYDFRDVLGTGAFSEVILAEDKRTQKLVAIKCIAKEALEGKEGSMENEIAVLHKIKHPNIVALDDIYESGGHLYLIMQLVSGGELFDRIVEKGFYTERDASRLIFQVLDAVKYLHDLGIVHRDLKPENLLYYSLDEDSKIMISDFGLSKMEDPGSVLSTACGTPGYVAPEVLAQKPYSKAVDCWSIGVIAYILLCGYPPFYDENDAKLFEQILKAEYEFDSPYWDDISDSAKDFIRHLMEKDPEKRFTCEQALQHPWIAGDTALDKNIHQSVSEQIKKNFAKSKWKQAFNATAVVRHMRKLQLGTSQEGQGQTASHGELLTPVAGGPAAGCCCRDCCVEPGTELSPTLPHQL
In short: as §1

CAMK1B = molecular target: T6, CAMK1B (Homo sapiens, UniProt Q6P2M8)
T6 construct: purchased Eurofins DiscoverX KINOMEscan
T6 sequence (Q6P2M8 whole entry): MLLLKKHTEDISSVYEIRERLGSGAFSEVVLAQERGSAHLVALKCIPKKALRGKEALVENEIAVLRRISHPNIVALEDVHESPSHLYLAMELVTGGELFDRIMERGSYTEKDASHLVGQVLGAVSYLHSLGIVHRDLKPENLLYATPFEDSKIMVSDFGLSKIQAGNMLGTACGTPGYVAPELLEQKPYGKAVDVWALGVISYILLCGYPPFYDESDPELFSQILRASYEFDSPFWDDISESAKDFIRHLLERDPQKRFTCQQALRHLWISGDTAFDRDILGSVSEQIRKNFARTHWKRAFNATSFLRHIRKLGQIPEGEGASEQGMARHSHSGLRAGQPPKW
In short: (§2)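 A 12-point half-log dilution series topping at 33 μM defined each Kd. The kinase fraction escaping compound binding over 1 h at room temperature was trapped by an immobilized affinity ligand and measured by quantitative PCR.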

CDC2L5 = molecular target: T7, CDC2L5 (Homo sapiens, UniProt Q14004)
T7 construct: purchased Eurofins DiscoverX KINOMEscan
T7 sequence (Q14004 whole entry): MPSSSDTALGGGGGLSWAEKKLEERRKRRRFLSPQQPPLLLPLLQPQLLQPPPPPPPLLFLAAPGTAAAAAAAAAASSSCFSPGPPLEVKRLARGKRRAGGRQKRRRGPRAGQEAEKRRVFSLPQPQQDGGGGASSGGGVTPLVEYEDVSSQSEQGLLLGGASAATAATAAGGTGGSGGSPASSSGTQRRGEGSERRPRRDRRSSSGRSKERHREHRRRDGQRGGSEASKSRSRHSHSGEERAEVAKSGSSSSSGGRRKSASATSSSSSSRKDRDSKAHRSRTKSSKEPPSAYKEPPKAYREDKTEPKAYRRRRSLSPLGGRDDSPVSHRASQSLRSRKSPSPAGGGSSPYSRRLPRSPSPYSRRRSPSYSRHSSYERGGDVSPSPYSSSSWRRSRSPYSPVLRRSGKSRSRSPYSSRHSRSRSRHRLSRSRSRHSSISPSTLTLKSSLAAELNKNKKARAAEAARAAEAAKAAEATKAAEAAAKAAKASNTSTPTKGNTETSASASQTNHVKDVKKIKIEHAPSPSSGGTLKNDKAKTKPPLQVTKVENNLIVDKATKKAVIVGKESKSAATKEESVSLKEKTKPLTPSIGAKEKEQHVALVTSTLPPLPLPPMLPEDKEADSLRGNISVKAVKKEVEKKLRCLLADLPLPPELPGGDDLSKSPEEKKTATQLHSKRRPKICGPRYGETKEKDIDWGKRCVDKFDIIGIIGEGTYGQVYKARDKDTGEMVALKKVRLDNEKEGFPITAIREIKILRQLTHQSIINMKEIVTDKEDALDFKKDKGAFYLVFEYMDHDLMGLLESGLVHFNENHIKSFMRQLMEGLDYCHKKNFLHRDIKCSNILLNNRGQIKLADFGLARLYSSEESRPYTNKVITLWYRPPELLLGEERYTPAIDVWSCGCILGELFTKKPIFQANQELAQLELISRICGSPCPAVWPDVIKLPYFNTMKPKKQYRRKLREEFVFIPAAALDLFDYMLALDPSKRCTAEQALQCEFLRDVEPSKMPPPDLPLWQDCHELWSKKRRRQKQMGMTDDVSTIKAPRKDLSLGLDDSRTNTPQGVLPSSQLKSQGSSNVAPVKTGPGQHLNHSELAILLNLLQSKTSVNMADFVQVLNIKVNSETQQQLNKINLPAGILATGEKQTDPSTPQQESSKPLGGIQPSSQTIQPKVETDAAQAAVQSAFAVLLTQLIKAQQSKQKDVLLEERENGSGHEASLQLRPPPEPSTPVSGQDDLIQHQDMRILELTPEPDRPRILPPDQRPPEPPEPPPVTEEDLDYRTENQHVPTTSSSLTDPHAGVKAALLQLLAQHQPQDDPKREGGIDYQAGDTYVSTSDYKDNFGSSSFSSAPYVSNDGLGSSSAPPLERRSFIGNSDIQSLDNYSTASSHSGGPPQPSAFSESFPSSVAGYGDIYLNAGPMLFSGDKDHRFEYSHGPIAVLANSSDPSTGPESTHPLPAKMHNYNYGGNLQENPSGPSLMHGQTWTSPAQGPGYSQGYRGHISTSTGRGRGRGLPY
In short: as §1

CDK4-cyclinD3 = molecular target: T8, CDK4-cyclinD3 (Homo sapiens, UniProt P11802)
T8 construct: purchased Eurofins DiscoverX KINOMEscan
In short: as §1

CDK5 = molecular target: T9, CDK5 (Homo sapiens, UniProt Q00535)
T9 construct: purchased Eurofins DiscoverX KINOMEscan
In short: as §1

DCAMKL2 = molecular target: T10, DCAMKL2 (Homo sapiens, UniProt Q8N568)
T10 construct: purchased Eurofins DiscoverX KINOMEscan
In short: as §2

EGFR (G719C) = molecular target: T11, EGFR (G719C) (Homo sapiens, UniProt P00533, G719C)
T11 construct: purchased Eurofins DiscoverX KINOMEscan
In short: as §1

EGFR (S752-I759 del) = molecular target: T12, EGFR (S752-I759 del) (Homo sapiens, UniProt P00533, DEL752-759)
T12 construct: purchased Eurofins DiscoverX KINOMEscan
In short: as §1

ERK4 = molecular target: T13, ERK4 (Homo sapiens, UniProt P31152)
T13 construct: purchased Eurofins DiscoverX KINOMEscan
In short: as §2

FGFR3 = molecular target: T14, FGFR3 (Homo sapiens, UniProt P22607)
T14 construct: purchased Eurofins DiscoverX KINOMEscan
In short: as §2

GSK3A = molecular target: T15, GSK3A (Homo sapiens, UniProt P49840)
T15 construct: purchased Eurofins DiscoverX KINOMEscan
In short: as §1

IGF1R = molecular target: T16, IGF1R (Homo sapiens, UniProt P08069)
T16 construct: purchased Eurofins DiscoverX KINOMEscan
In short: as §2

IRAK3 = molecular target: T17, IRAK3 (Homo sapiens, UniProt Q9Y616)
T17 construct: purchased Eurofins DiscoverX KINOMEscan
In short: as §2

MEK6 = molecular target: T18, MEK6 (Homo sapiens, UniProt P52564)
T18 construct: purchased Eurofins DiscoverX KINOMEscan
T18 sequence (P52564 whole entry): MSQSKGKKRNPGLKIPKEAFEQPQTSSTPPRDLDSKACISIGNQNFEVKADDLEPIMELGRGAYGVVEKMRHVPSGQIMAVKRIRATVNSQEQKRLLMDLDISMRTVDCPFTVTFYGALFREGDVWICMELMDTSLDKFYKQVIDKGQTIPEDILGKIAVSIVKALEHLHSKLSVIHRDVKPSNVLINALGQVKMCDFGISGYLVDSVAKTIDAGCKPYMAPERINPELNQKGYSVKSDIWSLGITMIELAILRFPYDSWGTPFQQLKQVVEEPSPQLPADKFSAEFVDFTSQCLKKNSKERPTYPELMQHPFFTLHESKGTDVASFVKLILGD
In short: as §2

MET (M1250T) = molecular target: T19, MET (M1250T) (Homo sapiens, UniProt P08581, M1250T)
T19 construct: purchased Eurofins DiscoverX KINOMEscan
In short: as §1

MRCKA = molecular target: T20, MRCKA (Homo sapiens, UniProt Q5VT25)
T20 construct: purchased Eurofins DiscoverX KINOMEscan
In short: as §1

MST1R = molecular target: T21, MST1R (Homo sapiens, UniProt Q04912)
T21 construct: purchased Eurofins DiscoverX KINOMEscan
In short: as §1

PCTK1 = molecular target: T22, PCTK1 (Homo sapiens, UniProt Q00536)
T22 construct: purchased Eurofins DiscoverX KINOMEscan
In short: as §1

PKAC-β = molecular target: T23, PKAC-β (Homo sapiens, UniProt P22694)
T23 construct: purchased Eurofins DiscoverX KINOMEscan
In short: as §1

PKN1 = molecular target: T24, PKN1 (Homo sapiens, UniProt Q16512)
T24 construct: purchased Eurofins DiscoverX KINOMEscan
T24 sequence (Q16512 whole entry): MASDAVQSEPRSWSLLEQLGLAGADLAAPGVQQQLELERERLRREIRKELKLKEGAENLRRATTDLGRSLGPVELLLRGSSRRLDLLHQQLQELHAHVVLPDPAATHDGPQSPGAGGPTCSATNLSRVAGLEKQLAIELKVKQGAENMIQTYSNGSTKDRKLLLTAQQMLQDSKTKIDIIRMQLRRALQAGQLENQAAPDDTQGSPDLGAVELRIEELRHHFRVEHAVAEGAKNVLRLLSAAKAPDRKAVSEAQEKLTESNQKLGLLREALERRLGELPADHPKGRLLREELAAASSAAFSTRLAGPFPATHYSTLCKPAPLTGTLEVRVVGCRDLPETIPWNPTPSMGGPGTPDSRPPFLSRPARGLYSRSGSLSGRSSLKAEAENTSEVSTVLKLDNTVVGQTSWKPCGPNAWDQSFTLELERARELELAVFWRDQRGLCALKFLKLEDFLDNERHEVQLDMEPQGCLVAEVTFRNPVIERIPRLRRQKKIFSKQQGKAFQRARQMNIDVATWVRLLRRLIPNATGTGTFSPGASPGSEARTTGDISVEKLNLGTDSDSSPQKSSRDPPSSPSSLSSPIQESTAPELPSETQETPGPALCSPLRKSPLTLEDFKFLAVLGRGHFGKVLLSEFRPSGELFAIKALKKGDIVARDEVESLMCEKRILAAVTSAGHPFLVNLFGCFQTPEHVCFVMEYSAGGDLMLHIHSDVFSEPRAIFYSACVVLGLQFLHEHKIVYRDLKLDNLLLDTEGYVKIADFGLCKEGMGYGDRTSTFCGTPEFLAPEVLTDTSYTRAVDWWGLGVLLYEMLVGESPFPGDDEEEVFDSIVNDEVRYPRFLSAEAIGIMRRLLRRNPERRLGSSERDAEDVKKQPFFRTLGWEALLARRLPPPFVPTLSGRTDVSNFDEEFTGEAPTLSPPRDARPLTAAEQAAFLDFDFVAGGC
In short: as §1

PRKD2 = molecular target: T25, PRKD2 (Homo sapiens, UniProt Q9BZL6)
T25 construct: purchased Eurofins DiscoverX KINOMEscan
T25 sequence (Q9BZL6 whole entry): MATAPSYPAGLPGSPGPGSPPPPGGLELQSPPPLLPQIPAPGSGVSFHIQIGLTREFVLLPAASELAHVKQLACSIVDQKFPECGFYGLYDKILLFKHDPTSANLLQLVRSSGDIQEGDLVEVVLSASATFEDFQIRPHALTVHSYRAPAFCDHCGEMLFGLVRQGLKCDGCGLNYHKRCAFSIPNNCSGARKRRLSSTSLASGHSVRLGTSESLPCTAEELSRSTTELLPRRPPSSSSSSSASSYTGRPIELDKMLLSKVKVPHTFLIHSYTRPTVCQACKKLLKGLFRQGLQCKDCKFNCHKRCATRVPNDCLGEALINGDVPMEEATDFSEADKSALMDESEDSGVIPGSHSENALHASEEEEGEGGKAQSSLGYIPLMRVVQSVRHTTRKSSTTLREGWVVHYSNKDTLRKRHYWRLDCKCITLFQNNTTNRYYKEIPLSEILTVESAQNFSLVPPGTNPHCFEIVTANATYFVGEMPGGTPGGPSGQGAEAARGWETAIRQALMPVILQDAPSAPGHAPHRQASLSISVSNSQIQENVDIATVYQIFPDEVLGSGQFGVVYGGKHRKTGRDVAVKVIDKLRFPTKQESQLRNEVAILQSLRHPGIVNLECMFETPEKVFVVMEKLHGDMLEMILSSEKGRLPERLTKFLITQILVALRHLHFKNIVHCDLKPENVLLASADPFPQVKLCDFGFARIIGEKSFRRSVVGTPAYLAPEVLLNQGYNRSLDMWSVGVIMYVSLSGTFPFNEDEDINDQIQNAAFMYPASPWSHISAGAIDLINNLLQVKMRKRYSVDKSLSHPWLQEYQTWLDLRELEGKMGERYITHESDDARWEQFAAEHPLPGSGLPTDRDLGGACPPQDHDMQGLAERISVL
In short: as §1

PRKG2 = molecular target: T26, PRKG2 (Homo sapiens, UniProt Q13237)
T26 construct: purchased Eurofins DiscoverX KINOMEscan
In short: as §2

RET = molecular target: T27, RET (Homo sapiens, UniProt P07949)
T27 construct: purchased Eurofins DiscoverX KINOMEscan
In short: as §1

RET (V804M) = molecular target: T28, RET (V804M) (Homo sapiens, UniProt P07949, V804M)
T28 construct: purchased Eurofins DiscoverX KINOMEscan
In short: as §1

RIOK2 = molecular target: T29, RIOK2 (Homo sapiens, UniProt Q9BVS4)
T29 construct: purchased Eurofins DiscoverX KINOMEscan
In short: as §1

RIOK3 = molecular target: T30, RIOK3 (Homo sapiens, UniProt O14730)
T30 construct: purchased Eurofins DiscoverX KINOMEscan
In short: as §2

ROS1 = molecular target: T31, ROS1 (Homo sapiens, UniProt P08922)
T31 construct: purchased Eurofins DiscoverX KINOMEscan
In short: as §1

[1] = molecular target: T32, RSK4 (Kin. Dom.2-C-term.) (Homo sapiens, UniProt Q9UK32)
T32 construct: RSK4 (Kin. Dom.2-C-term.); purchased Eurofins DiscoverX KINOMEscan
In short: as §1

SNRK = molecular target: T33, SNRK (Homo sapiens, UniProt Q9NRH2)
T33 construct: purchased Eurofins DiscoverX KINOMEscan
In short: as §1

SRC = molecular target: T34, SRC (Homo sapiens, UniProt P12931)
T34 construct: purchased Eurofins DiscoverX KINOMEscan
In short: as §1

TAK1 = molecular target: T35, TAK1 (Homo sapiens, UniProt O43318)
T35 construct: purchased Eurofins DiscoverX KINOMEscan
In short: as §2

TRKC = molecular target: T36, TRKC (Homo sapiens, UniProt Q16288)
T36 construct: purchased Eurofins DiscoverX KINOMEscan
In short: as §2

TYRO3 = molecular target: T37, TYRO3 (Homo sapiens, UniProt Q06418)
T37 construct: purchased Eurofins DiscoverX KINOMEscan
In short: as §1

WEE1 = molecular target: T38, WEE1 (Homo sapiens, UniProt P30291)
T38 construct: purchased Eurofins DiscoverX KINOMEscan
T38 sequence (P30291 whole entry): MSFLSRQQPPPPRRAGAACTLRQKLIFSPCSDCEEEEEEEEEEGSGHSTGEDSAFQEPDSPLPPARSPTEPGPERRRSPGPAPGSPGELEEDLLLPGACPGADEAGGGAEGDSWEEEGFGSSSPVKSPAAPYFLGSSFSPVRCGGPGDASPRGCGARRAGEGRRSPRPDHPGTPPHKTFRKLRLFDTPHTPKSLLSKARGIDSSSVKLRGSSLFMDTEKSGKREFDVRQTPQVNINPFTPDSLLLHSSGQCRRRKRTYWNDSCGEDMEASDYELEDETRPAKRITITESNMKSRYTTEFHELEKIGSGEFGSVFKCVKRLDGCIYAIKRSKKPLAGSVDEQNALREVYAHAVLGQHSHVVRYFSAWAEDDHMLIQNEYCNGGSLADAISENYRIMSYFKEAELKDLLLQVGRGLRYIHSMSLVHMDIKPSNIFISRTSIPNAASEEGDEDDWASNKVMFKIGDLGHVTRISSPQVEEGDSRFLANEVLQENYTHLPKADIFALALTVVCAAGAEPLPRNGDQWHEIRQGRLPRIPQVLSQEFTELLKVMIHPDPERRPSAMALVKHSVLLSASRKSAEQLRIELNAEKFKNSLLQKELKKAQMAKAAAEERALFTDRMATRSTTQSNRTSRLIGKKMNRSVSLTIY
In short: as §1

YANK1 = molecular target: T39, YANK1 (Homo sapiens, UniProt Q8WU08)
T39 construct: purchased Eurofins DiscoverX KINOMEscan
In short: as §1

p38-β = molecular target: T40, p38-β (Homo sapiens, UniProt Q15759)
T40 construct: purchased Eurofins DiscoverX KINOMEscan
In short: as §1

O=C1Nc2c(cc([N+](=O)[O-])c3c2CCCC3)C1=NO [Compound 5d, 3-(Hydroxyimino)-5-nitro-1,3,6,7,8,9-hexahydro-2H-benzo[g]indol-2-one]
inhibition at 10 µM (ADCK4): 12%
inhibition at 10 µM (AKT3): 9%
inhibition at 10 µM (ALK): 46%
inhibition at 10 µM (BRSK1): 36%
inhibition at 10 µM (CAMK1): 38%
inhibition at 10 µM (CAMK1B): 12%
inhibition at 10 µM (CDC2L5): 13%
inhibition at 10 µM (CDK4-cyclinD3): 22%
inhibition at 10 µM (CDK5): 1%
inhibition at 10 µM (DCAMKL2): 0%
inhibition at 10 µM (EGFR (G719C)): 24%
inhibition at 10 µM (EGFR (S752-I759 del)): 16%
inhibition at 10 µM (ERK4): 0%
inhibition at 10 µM (FGFR3): 14%
inhibition at 10 µM (GSK3A): 57%
inhibition at 10 µM (IGF1R): 0%
inhibition at 10 µM (IRAK3): 32%
inhibition at 10 µM (MEK6): 3%
inhibition at 10 µM (MET (M1250T)): 51%
inhibition at 10 µM (MRCKA): 17%
inhibition at 10 µM (MST1R): 0%
inhibition at 10 µM (PCTK1): 5%
inhibition at 10 µM (PKAC-β): 2%
inhibition at 10 µM (PKN1): 9%
inhibition at 10 µM (PRKD2): 77%
inhibition at 10 µM (PRKG2): 6%
inhibition at 10 µM (RET): 8%
inhibition at 10 µM (RET (V804M)): 4%
inhibition at 10 µM (RIOK2): 80%
inhibition at 10 µM (RIOK3): 19%
inhibition at 10 µM (ROS1): 67%
inhibition at 10 µM [1]: 36%
inhibition at 10 µM (SNRK): 22%
inhibition at 10 µM (SRC): 28%
inhibition at 10 µM (TAK1): 67%
inhibition at 10 µM (TRKC): 31%
inhibition at 10 µM (TYRO3): 18%
inhibition at 10 µM (WEE1): 16%
inhibition at 10 µM (YANK1): 11%
inhibition at 10 µM (p38-β): 15%
